ChEMBL document CHEMBL3244328, “trans-2,3b,4,5,7,8b,9,10-Octahydronaphtho[1,2-c:5,6-c']dipyrazole, a new orally active antiallergic compound” (1978)
The source made the active and inactive calls. The rule behind the calls is not given here.

How the values were obtained:
Type in all cases: functional
[1] = system: Rattus norvegicus; assay: Antiallergic activity in Sprague-Dawley rat assessed as inhibition of mouse antiserum-induced passive cutaneous anaphylaxis at 100 mg/kg, po administered 1 hr before antiserum challenge measured after 3 hrs by Evans blue staining relative to control
[2] = system: Rattus norvegicus; assay: Antiallergic activity in Sprague-Dawley rat assessed as inhibition of mouse antiserum-induced passive cutaneous anaphylaxis at 50 mg/kg, po administered 1 hr before antiserum challenge measured after 30 mins by Evans blue staining relative to control; conditions: read-out: INH
[3] = system: Rattus norvegicus; assay: Antiallergic activity in Sprague-Dawley rat assessed as inhibition of mouse antiserum-induced passive cutaneous anaphylaxis at 200 mg/kg, po administered 1 hr before antiserum challenge measured after 6 hrs by Evans blue staining relative to control; conditions: read-out: INH
[4] = system: Rattus norvegicus; assay: Antiallergic activity in po dosed Sprague-Dawley rat assessed as inhibition of mouse antiserum-induced passive cutaneous anaphylaxis administered 1 hr before antiserum challenge measured after 30 mins by Evans blue staining
[5] = system: Rattus norvegicus; assay: Antiallergic activity in Sprague-Dawley rat assessed as inhibition of mouse antiserum-induced passive cutaneous anaphylaxis at 25 mg/kg, po administered 1 hr before antiserum challenge measured after 30 mins by Evans blue staining relative to control; conditions: read-out: INH
[6] = system: Rattus norvegicus; assay: Antiallergic activity in Sprague-Dawley rat assessed as inhibition of mouse antiserum-induced passive cutaneous anaphylaxis at 5 to 6 times ED50 mg/kg, po administered 1 hr before antiserum challenge measured after 30 mins by Evans blue staining relative to control

| SMILES | inhibition [1] | inhibition in vivo at 100 mg/kg ([1]; read-out: INH) | inhibition in vivo at 50 mg/kg [2] | inhibition in vivo at 200 mg/kg [3] | ED50 [4] | inhibition in vivo at 25 mg/kg [5] | inhibition (INH) [6] |
| --- | --- | --- | --- | --- | --- | --- | --- |
| Cn1cc2c(n1)[C@H]1CCc3cn(C)nc3[C@@H]1CC2 | inactive | – | – | – | – | – | – |
| c1ccc(-n2ncc3c2[C@H]2CCc4cnn(-c5ccccc5)c4[C@@H]2CC3)cc1 | inactive | – | – | – | – | – | – |
| c1[nH]nc2c1CC[C@H]1c3n[nH]cc3CC[C@H]21 | – | 65% | 61% | 63% | 35 mg/kg | 33% | 60% |
